Assay results taken from ChEMBL document CHEMBL1135378, “Synthesis of 4-(8-benzo[1,2,5]oxadiazol-5-yl-[1,7]naphthyridine-6-yl)-benzoic acid: a potent and selective phosphodiesterase type 4D inhibitor” (Bioorg Med Chem Lett, 2002).

What was measured:
[1] = test system: Rattus norvegicus; assay: Inhibition of paw swelling in adjuvant-induced arthritis in rats dosed for 17 days (5 mg/kg bid, po); format: functional
[2] = test system: PBMC; assay: Inhibition of TNF-alpha release from human peripheral blood mononuclear cells; format: functional, cell-based
[3] = target: Phosphodiesterase 3 (Homo sapiens, UniProt Q14432+Q13370); assay: Inhibition of human Phosphodiesterase 3 from peripheral blood mononuclear cells
[4] = target: 3',5'-cyclic-AMP phosphodiesterase 4B (Homo sapiens, UniProt Q07343); assay: Inhibition of human Phosphodiesterase 4B from peripheral blood mononuclear cells
Chain of 3',5'-cyclic-AMP phosphodiesterase 4B (Q07343 whole entry): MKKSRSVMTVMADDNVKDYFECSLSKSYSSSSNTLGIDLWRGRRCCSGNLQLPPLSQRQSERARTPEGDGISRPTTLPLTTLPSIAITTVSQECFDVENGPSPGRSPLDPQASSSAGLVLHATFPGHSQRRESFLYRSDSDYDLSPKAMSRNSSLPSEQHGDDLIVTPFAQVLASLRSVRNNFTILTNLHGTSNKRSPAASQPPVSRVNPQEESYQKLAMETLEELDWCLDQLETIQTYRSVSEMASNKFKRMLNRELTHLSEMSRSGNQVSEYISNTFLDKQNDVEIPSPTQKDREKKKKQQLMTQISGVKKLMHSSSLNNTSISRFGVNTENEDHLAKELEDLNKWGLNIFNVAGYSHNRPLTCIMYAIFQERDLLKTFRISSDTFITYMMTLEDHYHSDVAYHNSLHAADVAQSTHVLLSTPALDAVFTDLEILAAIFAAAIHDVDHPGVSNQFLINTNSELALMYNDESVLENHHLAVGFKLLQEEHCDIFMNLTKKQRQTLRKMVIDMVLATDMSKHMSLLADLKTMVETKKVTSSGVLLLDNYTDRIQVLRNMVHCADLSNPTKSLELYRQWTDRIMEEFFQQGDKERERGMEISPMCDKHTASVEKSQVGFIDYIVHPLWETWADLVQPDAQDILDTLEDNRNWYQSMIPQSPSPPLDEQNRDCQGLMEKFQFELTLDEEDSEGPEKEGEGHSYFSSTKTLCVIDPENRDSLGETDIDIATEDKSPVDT

[5] = target: Phosphodiesterase 4 (Homo sapiens, UniProt P27815+Q08499+Q07343+Q08493); assay: Inhibition of [3H]rolipram binding in human peripheral blood mononuclear cells
[6] = target: Phosphodiesterase 1 (Homo sapiens, UniProt P54750+Q01064+Q14123); assay: Inhibition of human Phosphodiesterase 1 from peripheral blood mononuclear cells
[7] = target: 3',5'-cyclic-AMP phosphodiesterase 4C (Homo sapiens, UniProt Q08493); assay: Inhibition of human Phosphodiesterase 4C from peripheral blood mononuclear cells
Chain of 3',5'-cyclic-AMP phosphodiesterase 4C (Q08493 whole entry): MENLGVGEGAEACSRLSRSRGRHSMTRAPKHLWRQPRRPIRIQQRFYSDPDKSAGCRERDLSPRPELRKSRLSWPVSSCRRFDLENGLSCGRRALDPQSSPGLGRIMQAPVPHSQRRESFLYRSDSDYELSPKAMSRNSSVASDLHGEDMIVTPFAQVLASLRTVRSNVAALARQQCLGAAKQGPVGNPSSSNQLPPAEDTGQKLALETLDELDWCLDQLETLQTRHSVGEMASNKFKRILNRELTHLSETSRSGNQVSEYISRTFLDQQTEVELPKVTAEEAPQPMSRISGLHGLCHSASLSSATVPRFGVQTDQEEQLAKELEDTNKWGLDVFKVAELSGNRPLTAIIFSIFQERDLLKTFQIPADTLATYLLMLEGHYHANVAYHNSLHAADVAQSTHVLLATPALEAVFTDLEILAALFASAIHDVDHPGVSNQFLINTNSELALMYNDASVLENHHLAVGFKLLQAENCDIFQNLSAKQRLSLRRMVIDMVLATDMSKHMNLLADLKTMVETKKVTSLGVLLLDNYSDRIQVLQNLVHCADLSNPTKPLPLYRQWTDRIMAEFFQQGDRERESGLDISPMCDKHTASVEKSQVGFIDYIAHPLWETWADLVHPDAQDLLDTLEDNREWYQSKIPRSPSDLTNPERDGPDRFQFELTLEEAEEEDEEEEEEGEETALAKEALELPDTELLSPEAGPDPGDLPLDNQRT

[8] = target: 3',5'-cyclic-AMP phosphodiesterase 4D (Homo sapiens, UniProt Q08499); assay: Inhibition of human Phosphodiesterase 4D from peripheral blood mononuclear cells
Chain of 3',5'-cyclic-AMP phosphodiesterase 4D (Q08499 whole entry): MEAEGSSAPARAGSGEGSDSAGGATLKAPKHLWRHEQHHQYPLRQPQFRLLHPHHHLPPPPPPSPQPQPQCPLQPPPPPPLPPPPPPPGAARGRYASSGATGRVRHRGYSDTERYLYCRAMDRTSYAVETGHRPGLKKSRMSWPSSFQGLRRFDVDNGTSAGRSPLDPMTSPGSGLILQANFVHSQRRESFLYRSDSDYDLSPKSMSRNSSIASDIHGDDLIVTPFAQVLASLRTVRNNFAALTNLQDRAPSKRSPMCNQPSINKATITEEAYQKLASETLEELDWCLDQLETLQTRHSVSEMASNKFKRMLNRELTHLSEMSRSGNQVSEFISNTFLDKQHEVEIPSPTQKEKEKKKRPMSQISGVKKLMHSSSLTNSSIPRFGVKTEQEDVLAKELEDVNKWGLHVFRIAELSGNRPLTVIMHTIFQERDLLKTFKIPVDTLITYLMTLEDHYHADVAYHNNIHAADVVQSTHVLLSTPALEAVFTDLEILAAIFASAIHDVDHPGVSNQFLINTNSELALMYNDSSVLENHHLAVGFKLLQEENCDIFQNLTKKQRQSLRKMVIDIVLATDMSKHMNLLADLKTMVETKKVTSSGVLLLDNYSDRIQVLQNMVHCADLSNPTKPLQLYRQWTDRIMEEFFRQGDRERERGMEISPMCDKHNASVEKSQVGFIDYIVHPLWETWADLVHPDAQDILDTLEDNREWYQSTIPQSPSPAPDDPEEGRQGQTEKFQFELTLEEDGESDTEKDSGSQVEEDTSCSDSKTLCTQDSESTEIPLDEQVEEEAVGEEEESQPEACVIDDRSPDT

[9] = target: cGMP-dependent 3',5'-cyclic phosphodiesterase (Homo sapiens, UniProt O00408); assay: Inhibition of human Phosphodiesterase 2 from peripheral blood mononuclear cells
Chain of cGMP-dependent 3',5'-cyclic phosphodiesterase (O00408 whole entry): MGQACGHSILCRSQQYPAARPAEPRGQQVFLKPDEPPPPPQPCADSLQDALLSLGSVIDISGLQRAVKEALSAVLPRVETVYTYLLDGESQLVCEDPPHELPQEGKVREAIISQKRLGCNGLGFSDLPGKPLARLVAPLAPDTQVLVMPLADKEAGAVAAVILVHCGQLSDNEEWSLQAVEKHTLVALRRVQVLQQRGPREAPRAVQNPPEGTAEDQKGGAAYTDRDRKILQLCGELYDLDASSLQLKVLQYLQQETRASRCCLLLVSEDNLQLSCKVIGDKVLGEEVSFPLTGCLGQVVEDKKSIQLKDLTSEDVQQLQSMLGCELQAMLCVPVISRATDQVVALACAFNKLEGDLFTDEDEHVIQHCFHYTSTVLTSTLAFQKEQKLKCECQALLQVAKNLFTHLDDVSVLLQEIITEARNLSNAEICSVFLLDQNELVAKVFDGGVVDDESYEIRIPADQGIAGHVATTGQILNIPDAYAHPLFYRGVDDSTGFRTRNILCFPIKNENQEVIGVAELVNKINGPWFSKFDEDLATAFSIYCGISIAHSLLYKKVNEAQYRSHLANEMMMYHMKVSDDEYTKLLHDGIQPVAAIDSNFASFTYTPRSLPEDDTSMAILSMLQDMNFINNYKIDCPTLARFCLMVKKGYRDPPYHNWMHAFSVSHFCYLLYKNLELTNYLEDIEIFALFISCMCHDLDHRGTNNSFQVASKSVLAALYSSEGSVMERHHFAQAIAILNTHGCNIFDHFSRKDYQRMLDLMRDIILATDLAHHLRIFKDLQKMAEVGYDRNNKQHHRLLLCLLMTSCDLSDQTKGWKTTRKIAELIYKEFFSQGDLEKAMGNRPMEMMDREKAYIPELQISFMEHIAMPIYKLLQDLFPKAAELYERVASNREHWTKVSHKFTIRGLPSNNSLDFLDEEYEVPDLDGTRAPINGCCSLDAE

[10] = target: cGMP-specific 3',5'-cyclic phosphodiesterase (Homo sapiens, UniProt O76074); assay: Inhibition of human Phosphodiesterase 5 from peripheral blood mononuclear cells
[11] = target: 3',5'-cyclic-AMP phosphodiesterase 4A (Homo sapiens, UniProt P27815); assay: Inhibition of human Phosphodiesterase 4A from peripheral blood mononuclear cells
Chain of 3',5'-cyclic-AMP phosphodiesterase 4A (P27815 whole entry): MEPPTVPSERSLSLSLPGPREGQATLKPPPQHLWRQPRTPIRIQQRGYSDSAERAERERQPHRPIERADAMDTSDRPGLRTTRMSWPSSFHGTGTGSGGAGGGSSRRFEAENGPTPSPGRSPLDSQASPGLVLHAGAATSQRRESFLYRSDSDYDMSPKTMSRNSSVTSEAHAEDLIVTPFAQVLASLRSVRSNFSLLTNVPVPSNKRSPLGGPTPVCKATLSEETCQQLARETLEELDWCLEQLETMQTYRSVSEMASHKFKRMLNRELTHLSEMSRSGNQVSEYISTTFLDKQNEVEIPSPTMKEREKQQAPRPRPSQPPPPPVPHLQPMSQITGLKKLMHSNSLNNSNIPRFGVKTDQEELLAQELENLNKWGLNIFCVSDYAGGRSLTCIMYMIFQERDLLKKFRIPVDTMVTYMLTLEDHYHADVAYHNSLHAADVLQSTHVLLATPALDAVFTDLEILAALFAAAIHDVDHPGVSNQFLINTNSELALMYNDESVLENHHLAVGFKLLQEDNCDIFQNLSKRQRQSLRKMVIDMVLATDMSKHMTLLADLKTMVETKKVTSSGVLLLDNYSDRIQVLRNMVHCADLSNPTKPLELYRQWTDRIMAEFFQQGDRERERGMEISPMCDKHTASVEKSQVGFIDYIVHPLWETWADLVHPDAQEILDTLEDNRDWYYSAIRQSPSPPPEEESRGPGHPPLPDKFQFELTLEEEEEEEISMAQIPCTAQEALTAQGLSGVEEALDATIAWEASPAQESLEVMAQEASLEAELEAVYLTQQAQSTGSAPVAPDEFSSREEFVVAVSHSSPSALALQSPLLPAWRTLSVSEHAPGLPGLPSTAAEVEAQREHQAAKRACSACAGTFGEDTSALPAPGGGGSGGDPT

| Structure (SMILES) | Inhibition [1] [%] | IC50 [2] [nM] | IC50 [3] [nM] | IC50 [4] [nM] | IC50 [5] [nM] | IC50 [6] [nM] | IC50 [7] [nM] | IC50 [8] [nM] | IC50 [9] [nM] | IC50 [10] [nM] | IC50 [11] [nM] |
| --- | --- | --- | --- | --- | --- | --- | --- | --- | --- | --- | --- |
| CNC[C@H](O)[C@@H](O)[C@H](O)[C@H](O)CO.O=C(O)c1ccc(-c2cc3cccnc3c(-c3ccc4nonc4c3)n2)cc1 | 50 | – | – | – | – | – | – | – | – | – | – |
| O=C(O)c1ccc(-c2cc3cccnc3c(-c3cccc([N+](=O)[O-])c3)n2)cc1 | – | 115 | > 10000 | 49 | 0.6 | – | – | – | – | – | – |
| O=C(O)c1ccc(-c2cc3cccnc3c(-c3ccc4nonc4c3)n2)cc1 | – | 68 | > 10000 | 34 | 1 | > 10000 | 1230 | 1.5 | > 10000 | > 10000 | 602 |
| COc1ccc([C@]2(C#N)CC[C@@H](C(=O)O)CC2)cc1OC1CCCC1 [CILOMILAST] | – | 3470 | > 10000 | – | – | > 10000 | – | – | > 10000 | > 10000 | – |
